Source: patent US8507478B2, “Oxazolidinyl antibiotics” (Actelion Pharmaceuticals Ltd., priority 2008, dated 2013)
In brackets after ≈: the same amount, converted by molar mass.

Test system: M. catarrhalis A894
Test: MIC determination by microdilution in cation-adjusted Mueller-Hinton Broth
Assay type: cell-based
Settings: Moraxella catarrhalis, microdilution method, CLSI M7-A7
Description: Minimal inhibitory concentrations (MICs; mg/l) were determined in cation-adjusted Mueller-Hinton Broth by a microdilution method following the description given in “Methods for Dilution Antimicrobial Susceptibility Tests for Bacteria that Grow Aerobically”, Approved standard, 7th ed., Clinical and Laboratory Standards Institute (CLSI) Document M7-A7, Wayne, Pa., USA, 2006. All Example compounds were tested against several Gram positive and Gram negative bacteria such as S. aureus, E. faecalis, S. pneumoniae, M catarrhalis, A. baumanii, E.coli or P. aeruginosa.

Structure (SMILES)	MIC [µg/mL]
COc1ccc2ccc(=O)n(CC3(O)CCN(C[C@@H]4CN(c5ccc6c(c5)NC(=O)CS6)C(=O)O4)C3)c2c1 (mixture of isomers) [Example 18, 6-{(R)-5-[(RS)-3-hydroxy-3-(7-methoxy-2-oxo-2H-quinolin-1-ylmethyl)pyrrolidin-1-ylmethyl]-2-oxo-oxazolidin-3-yl}-4H-benzo[1,4]thiazin-3-one]	≤ 0.031
COc1ccc2ccc(=O)n(CC3(O)CCN(C[C@H]4CN(c5ccc6c(c5)NC(=O)CS6)C(=O)O4)C3)c2c1 (mixture of isomers) [Example 19, 6-{(S)-5-[(RS)-3-hydroxy-3-(7-methoxy-2-oxo-2H-quinolin-1-ylmethyl)pyrrolidin-1-ylmethyl]-2-oxo-oxazolidin-3-yl}-4H-benzo[1,4]thiazin-3-one]	≤ 0.031
COc1ccc2ccc(=O)n(CC3(O)CCN(CC[C@H]4CN(c5ccc6c(c5)NC(=O)CS6)C(=O)O4)C3)c2c1 (mixture of isomers) [Example 20, 6-((S)-5-{2-[(RS)-3-hydroxy-3-(7-methoxy-2-oxo-2H-quinolin-1-ylmethyl)-pyrrolidin-1-yl]-ethyl}-2-oxo-oxazolidin-3-yl)-4H-benzo[1,4]thiazin-3-one]	≤ 0.031
COc1ccc2ccc(=O)n(CC3(O)CCN(CC[C@@H]4CN(c5ccc6c(c5)NC(=O)CS6)C(=O)O4)C3)c2c1 (mixture of isomers) [Example 21, 6-((R)-5-{2-[(RS)-3-hydroxy-3-(7-methoxy-2-oxo-2H-quinolin-1-ylmethyl)-pyrrolidin-1-yl]-ethyl}-2-oxo-oxazolidin-3-yl)-4H-benzo[1,4]thiazin-3-one]	≤ 0.031
COc1ccc2ccc(=O)n(CC3(O)CN(C[C@@H]4CN(c5ccc6c(c5)NC(=O)CS6)C(=O)O4)C3)c2c1 [Example 1, 6-{(R)-5-[3-hydroxy-3-(7-methoxy-2-oxo-2H-quinolin-1-ylmethyl)azetidin-1-ylmethyl]-2-oxo-oxazolidin-3-yl}-4H-benzo[1,4]thiazin-3-one]	≤ 0.031
COc1ccc2ccc(=O)n(CC3CN(C[C@@H]4CN(c5ccc6c(c5)NC(=O)CS6)C(=O)O4)C3)c2c1 [Example 2, 6-{(R)-5-[3-(7-methoxy-2-oxo-2H-quinolin-1-ylmethyl)-azetidin-1-ylmethyl]-2-oxo-oxazolidin-3-yl}-4H-benzo[1,4]thiazin-3-one]	≤ 0.031
COc1ccc2ccc(=O)n(CC3CN(C[C@@H]4CN(c5ccc6c(c5)OCCO6)C(=O)O4)C3)c2c1 [Example 3, 1-{1-[(R)-3-(2,3-dihydro-benzo[1,4]dioxin-6-yl)-2-oxo-oxazolidin-5-ylmethyl]-azetidin-3-ylmethyl}-7-methoxy-1H-quinolin-2-one]	0.063 (≈ 0.132 µM)
COc1ccc2ncc(=O)n(CC3CN(C[C@@H]4CN(c5ccc6c(c5)NC(=O)CS6)C(=O)O4)C3)c2c1 [Example 4, 6-{(R)-5-[3-(7-methoxy-2-oxo-2H-quinoxalin-1-ylmethyl)-azetidin-1-ylmethyl]-2-oxo-oxazolidin-3-yl}-4H-benzo[1,4]thiazin-3-one]	≤ 0.031
COc1ccc2ccc(=O)n(CC3CN(CC[C@@H]4CN(c5ccc6c(c5)NC(=O)CS6)C(=O)O4)C3)c2c1 [Example 5, 6-((R)-5-{2-[3-(7-methoxy-2-oxo-2H-quinolin-1-ylmethyl)-azetidin-1-yl]-ethyl}-2-oxo-oxazolidin-3-yl)-4H-benzo[1,4]thiazin-3-one]	≤ 0.031
COc1ccc2ncc(=O)n(CC3CN(CC[C@@H]4CN(c5ccc6c(c5)NC(=O)CS6)C(=O)O4)C3)c2c1 [Example 6, 6-((R)-5-{2-[3-(7-methoxy-2-oxo-2H-quinoxalin-1-ylmethyl)-azetidin-1-yl]-ethyl}-2-oxo-oxazolidin-3-yl)-4H-benzo[1,4]thiazin-3-one]	≤ 0.031
COc1ccc2ccc(=O)n(CC3CCN(C[C@@H]4CN(c5ccc6c(c5)NC(=O)CS6)C(=O)O4)CC3)c2c1 [Example 7, 6-{(R)-5-[4-(7-methoxy-2-oxo-2H-quinolin-1-ylmethyl)-piperidin-1-ylmethyl]-2-oxo-oxazolidin-3-yl}-4H-benzo[1,4]thiazin-3-one]	≤ 0.031
COc1ccc2ccc(=O)n(CC3CCN(C[C@@H]4CN(c5ccc6c(c5)OCCO6)C(=O)O4)CC3)c2c1 [Example 8, 1-{1-[(R)-3-(2,3-dihydro-benzo[1,4]dioxin-6-yl)-2-oxo-oxazolidin-5-ylmethyl]-piperidin-4-ylmethyl}-7-methoxy-1H-quinolin-2-one]	1 (≈ 1.98 µM)
COc1ccc2ccc(=O)n(CC3CCN(C[C@@H]4CN(c5ccc(C)c(F)c5)C(=O)O4)CC3)c2c1 [Example 9, 1-{1-[(R)-3-(3-fluoro-4-methyl-phenyl)-2-oxo-oxazolidin-5-ylmethyl]-piperidin-4-ylmethyl}-7-methoxy-1H-quinolin-2-one]	1 (≈ 2.09 µM)
COc1ccc2c(c1)N(CC1CN(C[C@@H]3CN(c4ccc5c(c4)NC(=O)CS5)C(=O)O3)C1)C(=O)CC2 [Example 10, 6-{(R)-5-[3-(7-methoxy-2-oxo-3,4-dihydro-2H-quinolin-1-ylmethyl)azetidin-1-ylmethyl]-2-oxo-oxazolidin-3-yl}-4H-benzo[1,4]thiazin-3-one]	≤ 0.031
COc1ccc2c(c1)N(CC1CN(C[C@H]3CN(c4ccc5c(c4)NC(=O)CS5)C(=O)O3)C1)C(=O)CC2 [Example 11, 6-{(S)-5-[3-(7-methoxy-2-oxo-3,4-dihydro-2H-quinolin-1-ylmethyl)azetidin-1-ylmethyl]-2-oxo-oxazolidin-3-yl}-4H-benzo[1,4]thiazin-3-one]	≤ 0.031
COc1ccc2c(c1)N(CC1CN(C[C@@H]3CN(c4ccc5c(c4)NC(=O)CO5)C(=O)O3)C1)C(=O)CC2 [Example 12, 6-{(R)-5-[3-(7-methoxy-2-oxo-3,4-dihydro-2H-quinolin-1-ylmethyl)azetidin-1-ylmethyl]-2-oxo-oxazolidin-3-yl}-4H-benzo[1,4]oxazin-3-one]	0.5 (≈ 1.02 µM)
COc1ccc2ncc(=O)n(CC3CN(C[C@@H]4CN(c5ccc6c(c5)NC(=O)CO6)C(=O)O4)C3)c2c1 [Example 13, 6-{(R)-5-[3-(7-methoxy-2-oxo-2H-quinoxalin-1-ylmethyl)-azetidin-1-ylmethyl]-2-oxo-oxazolidin-3-yl}-4H-benzo[1,4]oxazin-3-one]	≤ 0.031
COc1ccc2ncc(=O)n(CC3CN(C[C@@H]4CN(c5ccc6c(c5)OCCO6)C(=O)O4)C3)c2c1 [Example 14, 1-{1-[(R)-3-(2,3-dihydro-benzo[1,4]dioxin-6-yl)-2-oxo-oxazolidin-5-ylmethyl]-azetidin-3-ylmethyl}-7-methoxy-1H-quinoxalin-2-one]	0.25 (≈ 0.522 µM)
COc1ccc2ncc(=O)n(C3CCN(C[C@@H]4CN(c5ccc6c(c5)NC(=O)CS6)C(=O)O4)CC3)c2n1 [Example 15, 6-methoxy-4-[1-{(R)-2-oxo-3-(3-oxo-3,4-dihydro-2H-benzo[1,4]thiazin-6-yl)-oxazolidin-5-ylmethyl]-piperidin-4-yl}-4H-pyrido[2,3-b]pyrazin-3-one]	≤ 0.031
COc1ccc2ncc(=O)n(C3CCN(C[C@@H]4CN(c5ccc6c(c5)NC(=O)CO6)C(=O)O4)CC3)c2n1 [Example 16, 6-methoxy-4-{1-[(R)-2-oxo-3-(3-oxo-3,4-dihydro-2H-benzo[1,4]oxazin-6-yl)-oxazolidin-5-ylmethyl]-piperidin-4-yl}-4H-pyrido[2,3-b]pyrazin-3-one]	≤ 0.031
COc1ccc2ccc(=O)n(C[C@@H]3CCN(C[C@@H]4CN(c5ccc6c(c5)NC(=O)CS6)C(=O)O4)C3)c2c1 [Example 17, 6-{(R)-5-[(R)-3-(7-methoxy-2-oxo-2H-quinolin-1-ylmethyl)-pyrrolidin-1-ylmethyl]-2-oxo-oxazolidin-3-yl}-4H-benzo[1,4]thiazin-3-one]	≤ 0.031
COc1ccc2ncc(=O)n(C3CCN(C[C@@H]4CN(c5ccc6c(c5)OCCO6)C(=O)O4)CC3)c2n1 [Example 22, 4-{1-[(R)-3-(2,3-dihydro-benzo[1,4]dioxin-6-yl)-2-oxo-oxazolidin-5-ylmethyl]-piperidin-4-yl}-6-methoxy-4H-pyrido[2,3-b]pyrazin-3-one]	≤ 0.031
COc1ccc2ncc(=O)n(C3CCN(CC[C@H]4CN(c5ccc6c(c5)NC(=O)CS6)C(=O)O4)CC3)c2n1 [Example 23, 6-methoxy-4-(1-{2-[(S)-2-oxo-3-(3-oxo-3,4-dihydro-2H-benzo[1,4]thiazin-6-yl)-oxazolidin-5-yl]-ethyl}-piperidin-4-yl)-4H-pyrido[2,3-b]pyrazin-3-one]	≤ 0.031
COc1ccc2ncc(=O)n(C3CCN(C[C@@H]4CN(c5ccc(C)c(F)c5)C(=O)O4)CC3)c2n1 [Example 24, 4-{1-[(R)-3-(3-fluoro-4-methyl-phenyl)-2-oxo-oxazolidin-5-ylmethyl]-piperidin-4-yl}-6-methoxy-4H-pyrido[2,3-b]pyrazin-3-one]	≤ 0.031
COc1ccc2ncc(=O)n(C3CCN(CC[C@@H]4CN(c5ccc6c(c5)NC(=O)CS6)C(=O)O4)CC3)c2n1 [Example 25, 6-methoxy-4-(1-{2-[(R)-2-oxo-3-(3-oxo-3,4-dihydro-2H-benzo[1,4]thiazin-6-yl)-oxazolidin-5-yl]-ethyl}-piperidin-4-yl)-4H-pyrido[2,3-b]pyrazin-3-one]	≤ 0.031
